From patent publication US20250281483A1, “TRANSCRIPTION FACTOR EB ACTIVATORS AND USES THEREOF” (Astellas Engineered Small Molecules US, Incorporated, priority 2022, published 2025)

Key:
[1] = In Vitro Liver Microsomes Metabolic Stability Assay, rat; type: in vitro ADME; settings: rat liver microsomes 0.5 mg/mL, 1 μM compound, NADPH, 0 and 30 min; scale-up CLint; read-out: CLint, Rat LM
Method: (§1) In Vitro Liver Microsomes Metabolic Stability Assay of Different Species
(§2) 1. The liver microsomes were stored at −80° C. prior to use.
(§3) 2. The master solution was prepared according to Table 3.
(§4) 3. 40 μL of 10 mM NADPH solution was added to each well. The final concentrations of NADPH was 1 mM. The mixture was pre-warmed at 37° C. for 5 minutes. The negative control samples were prepared by replacing NADPH solutions with 40 μL of ultra-pure H2O. The negative control was used to exclude the misleading factor that resulted from instability of chemical itself. Samples with NADPH were prepared in duplicate. Negative controls were prepared in singlet.
(§5) 4. The reaction was started with the addition of 2 μL of 200 μM control compound or test compound solutions. Verapamil was used as positive control in this study. The final concentration of test compound or control compound was 1 μM.
(§6) 5. Aliquots of 50 μL were taken from the reaction solution at 0 and 30 minutes. The reaction was stopped by the addition of 4 volumes of cold acetonitrile with Internal Standard (100 nM alprazolam, 200 nM imipramine, 200 nM labetalol and 2 μM ketoprofen). Samples were centrifuged at 3, 220 g for 40 minutes. Aliquot of 90 μL of the supernatant was mixed with 90 μL of ultra-pure H2O and then used for LC-MS/MS analysis.
(§7) Peak areas were determined from extracted ion chromatograms. The slope value, k, was determined by linear regression of the natural logarithm of the remaining percentage of the parent drug vs. incubation time curve.
(§8) The in vitro half-life (in vitro t1/2) was determined from the slope value:
(§9) Conversion of the in vitro t1/2 (min) into the in vitro intrinsic clearance (in vitro CLint, in μL/min/mg protein) was done using the following equation (mean of duplicate determinations): […]
(§10) Conversion of the in vitro t1/2 (min) into the scale-up unbound intrinsic clearance (Scale-up CLint, in mL/min/kg) was done using the following equation (mean of duplicate determinations): […]

[2] = In Vitro Liver Microsomes Metabolic Stability Assay, mouse; type: in vitro ADME; settings: mouse liver microsomes 0.5 mg/mL, 1 μM compound, NADPH, 0 and 30 min; scale-up CLint; read-out: CLint, Mouse LM
Method: as §1, §2, §3, §4, §5, §6, §7, §8, §9, §10

[3] = In Vitro Liver Microsomes Metabolic Stability Assay, human; type: in vitro ADME; settings: human liver microsomes 0.5 mg/mL, 1 μM compound, NADPH, 0 and 30 min; scale-up CLint; read-out: CLint, Human LM
Method: as §1, §2, §3, §4, §5, §6, §7, §8, §9, §10

TFEB = target: T1, TFEB (Homo sapiens, UniProt P19484); assay: Tfeb-Translocation Assay HEK-293T-oEX-Tfeb-GFP Cell Line; type: cell-based; settings: HEK-293T-oEX-TFEB-GFP cells; translocation positive cells ratio; read-out: TFEB Translocation EC50
T1 sequence (P19484 1-476): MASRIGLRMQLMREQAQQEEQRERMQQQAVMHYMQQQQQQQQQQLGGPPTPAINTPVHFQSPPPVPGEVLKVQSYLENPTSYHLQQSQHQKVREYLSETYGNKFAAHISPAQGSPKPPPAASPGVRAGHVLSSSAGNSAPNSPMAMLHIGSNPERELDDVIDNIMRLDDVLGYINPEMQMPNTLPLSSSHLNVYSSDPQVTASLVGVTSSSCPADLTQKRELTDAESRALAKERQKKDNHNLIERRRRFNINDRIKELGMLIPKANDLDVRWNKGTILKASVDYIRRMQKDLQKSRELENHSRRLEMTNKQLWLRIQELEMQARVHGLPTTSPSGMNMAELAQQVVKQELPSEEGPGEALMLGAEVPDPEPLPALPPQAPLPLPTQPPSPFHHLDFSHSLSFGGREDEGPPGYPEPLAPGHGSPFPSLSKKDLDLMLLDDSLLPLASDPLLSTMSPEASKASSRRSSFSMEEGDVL
Outline: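 HEK-293T cells overexpressing Tfeb-GFP were treated for 6 or 18 h at 37 °C with 10-point 3- or 2-fold dilutions from 50 µM (Torin 1 reference from 300 nM), then PFA-fixed and Hoechst-stained. Cells with nuclear/perinuclear EGFP ratio 1.2 among EGFP-positive cells were scored as translocation-positive; DMSO set to ~15% for normalization.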

With `Cc1cccc(CNC(=O)c2cc3c(=O)n(Cc4ccccc4)ccc3nc2C)n1` [Example 6, 6-benzyl-2-methyl-N-((6-methylpyridin-2-yl)methyl)-5-oxo-5,6-dihydro-1,6-naphthyridine-3-carboxamide] the CLint scaled at 1 μM [1] was 217 mL/min/kg, the CLint scaled at 1 μM [2] was 414 mL/min/kg and the CLint scaled at 1 μM [3] was 16 mL/min/kg. It also gave an EC50 (TFEB) of 0.1 to 1 µM.

Molecule `Cc1nc2ccn(Cc3ccccc3)c(=O)c2cc1C(=O)NCc1ccccn1` [Example 7, 6-benzyl-2-methyl-5-oxo-N-(pyridin-2-ylmethyl)-5,6-dihydro-1,6-naphthyridine-3-carboxamide] has a CLint scaled at 1 μM [1] of 28 mL/min/kg, a CLint scaled at 1 μM [2] of 91 mL/min/kg and a CLint scaled at 1 μM [3] of 2 mL/min/kg. For the same molecule, the EC50 (TFEB) was 0.1 to 1 µM.

`Cc1nc2ccn(Cc3ccccc3)c(=O)c2cc1C(=O)NCc1ccccc1` [Example 17, N,6-dibenzyl-2-methyl-5-oxo-5,6-dihydro-1,6-naphthyridine-3-carboxamide] gave a CLint scaled at 1 μM [1] of 163 mL/min/kg, a CLint scaled at 1 μM [2] of 470 mL/min/kg and a CLint scaled at 1 μM [3] of 15 mL/min/kg. For the same molecule, the EC50 (TFEB) was 0.1 to 1 µM.

In the case of `Cc1nc(CNC(=O)c2cc3c(=O)n(Cc4ccccc4)ccc3nc2C)co1` [Example 18, 6-benzyl-2-methyl-N-((2-methyloxazol-4-yl)methyl)-5-oxo-5,6-dihydro-1,6-naphthyridine-3-carboxamide], the CLint scaled at 1 μM [1] is reported as 73 mL/min/kg, the CLint scaled at 1 μM [2] is reported as 140 mL/min/kg and the CLint scaled at 1 μM [3] is reported as 4 mL/min/kg. The EC50 (TFEB) was 0.1 to 1 µM.

Molecule `Cc1nc2ccn(Cc3ccc(Cl)cc3)c(=O)c2cc1C(=O)NCc1ccccn1` [Example 31, 6-(4-chlorobenzyl)-2-methyl-5-oxo-N-(pyridin-2-ylmethyl)-5,6-dihydro-1,6-naphthyridine-3-carboxamide] has a CLint scaled at 1 μM [1] of 55 mL/min/kg, a CLint scaled at 1 μM [2] of 132 mL/min/kg and a CLint scaled at 1 μM [3] of 1 mL/min/kg. The EC50 (TFEB) was under 0.1 µM.

With `Cc1nc2ccn(Cc3ccccc3)c(=O)c2cc1C(=O)NCc1cc(F)c(F)cn1` [Example 50, 6-benzyl-N-((4,5-difluoropyridin-2-yl)methyl)-2-methyl-5-oxo-5,6-dihydro-1,6-naphthyridine-3-carboxamide] the CLint scaled at 1 μM [1] was 70 mL/min/kg, the CLint scaled at 1 μM [2] was 124 mL/min/kg and the CLint scaled at 1 μM [3] was 3 mL/min/kg. The EC50 (TFEB) was under 0.1 µM.
